Tested on: Mpl-expressing Ba/F3 cell line (human mpl gene)
Assay: Measurement of thrombopoietin (TPO) activity: viable cell count of Mpl-expressing Ba/F3 cell line (Cell Count Reagent SF, absorbance 450 nm)
Type: cell-based
Conditions: for Concentration: concentration corresponding to the maximum TPO activity value; for TPO activity: maximum TPO activity value, ODt/ODs×100 relative to maximum reaction of human TPO, Mpl-expressing Ba/F3 cells cultured at 37° C. for one day, at the concentration given
Method: The TPO activities of the compounds of the invention obtained in the aforementioned examples were measured by the procedure described below, for evaluation of their thrombopoietic effects.
Establishment of Mpl-expressing Ba/F3 Cell Line
The human mpl gene was cloned from cDNAs of the human erythroleukemia cell line HEL by PCR, and was incorporated into pCOS1 to construct an expression vector. The expression vector was transfected into Ba/F3 cells by electroporation method, and an Mpl-expressing Ba/F3 clone was established.
Measurement of Thrombopoietin (TPO) Activity
The cytokine-eliminated Mpl-expressing Ba/F3 line was plated in a 96-well plate at 25,000 cells/well. DMSO solutions containing the compounds obtained in each of the examples were then prepared to different specified concentration ranges, and each solution was added to the Mpl-expressing Ba/F3 cell line (final DMSO concentration: ≦0.1%), and the cell were cultured at 37° C. for one day. Human TPO (by R&D Systems or Genzyme) was used as a positive control.
Each of the cultured Mpl-expressing Ba/F3 cell lines was subjected to absorbance measurement at a wavelength of 450 nm (reference wavelength: 620 nm), corresponding to the viable cell count, using Cell Count Reagent SF (by Nacalai Tesque Inc.). The TPO activity of each compound for the Mpl-expressing Ba/F3 cell line was determined based on the following formula. TPO activity (%)=ODt/ODs×100
ODs: Absorbance at maximum reaction of human TPO (wavelength: 450-620 nm).
ODt: Absorbance of test solution (wavelength: 450-620 nm).
Tables 1 and 2 show the maximum TPO activity values and the corresponding concentrations of each compound, as obtained by the test described above.

Row | Structure (SMILES) | Concentration | TPO activity
1 | Cl.NCCCC[C@H](NC(=O)Cc1c[nH]c2ccccc12)C(=O)Nc1ccc(C(c2ccc(NC(=O)[C@H](CCCCN)NC(=O)Cc3c[nH]c4ccccc34)cc2)c2ccc(NC(=O)[C@H](CCCCN)NC(=O)Cc3c[nH]c4ccccc34)cc2)cc1 [Example 1, tris[4-[N-α-[2-(1H-indol-3-yl)acetyl]-L-lysyl]aminophenyl]methane hydrochloride] | 25 µM | 37.6%
2 | NCCC[C@H](NC(=O)Cc1c[nH]c2ccccc12)C(=O)Nc1ccc(C(c2ccc(NC(=O)[C@H](CCCN)NC(=O)Cc3c[nH]c4ccccc34)cc2)c2ccc(NC(=O)[C@H](CCCN)NC(=O)Cc3c[nH]c4ccccc34)cc2)cc1.O=C(O)C(F)(F)F [Example 134, tris[4-[N-α-[2-(1H-indol-3-yl)acetyl]-L-ornithyl]aminophenyl]methane trifluoroacetate] | 50 µM | 67.2%
3 | Cc1cccc2c(CC(=O)N[C@H](CCCCN)C(=O)Nc3ccc(C(c4ccc(NC(=O)[C@@H](CCCCN)NC(=O)Cc5c[nH]c6c(C)cccc56)cc4)c4ccc(NC(=O)[C@@H](CCCCN)NC(=O)Cc5c[nH]c6c(C)cccc56)cc4)cc3)c[nH]c12.Cl [Example 155, tris[4-[N-α-[2-(7-methyl-1H-indol-3-yl)acetyl]-D-lysyl]aminophenyl]methane hydrochloride] | 25 µM | 44.3%
4 | CN(C)CCCC[C@H](NC(=O)Cc1c[nH]c2ccccc12)C(=O)Nc1ccc(C(c2ccc(NC(=O)[C@H](CCCCN(C)C)NC(=O)Cc3c[nH]c4ccccc34)cc2)c2ccc(NC(=O)[C@H](CCCCN(C)C)NC(=O)Cc3c[nH]c4ccccc34)cc2)cc1 [Example 29, tris[4-[N-α-[2-(1H-indol-3-yl)acetyl]-N-εdimethyl-L-lysyl]aminophenyl]methane] | 25 µM | 98.5%
5 | NCCCC[C@@H](NC(=O)Cc1c[nH]c2ccccc12)C(=O)Nc1ccc(N(c2ccc(NC(=O)[C@@H](CCCCN)NC(=O)Cc3c[nH]c4ccccc34)cc2)c2ccc(NC(=O)[C@@H](CCCCN)NC(=O)Cc3c[nH]c4ccccc34)cc2)cc1.O=C(O)C(F)(F)F [Example 201, tris[4-[N-α-[2-(1H-indol-3-yl)acetyl]-D-lysyl]aminophenyl]amine trifluoroacetate] | 25 µM | 110%
6 | Cl.NCCCC[C@@H](NC(=O)Cc1ccncc1)C(=O)Nc1ccc(C(c2ccc(NC(=O)[C@@H](CCCCN)NC(=O)Cc3ccncc3)cc2)c2ccc(NC(=O)[C@@H](CCCCN)NC(=O)Cc3ccncc3)cc2)cc1 [Example 173, tris[4-[N-α-[2-(pyridin-4-yl)acetyl]-D-lysyl]aminophenyl]methane hydrochloride] | 100 µM | 35.4%
7 | N[C@H](CCCCNC(=O)Cc1ccccc1)C(=O)Nc1ccc(C(c2ccc(NC(=O)[C@H](N)CCCCNC(=O)Cc3ccccc3)cc2)c2ccc(NC(=O)[C@H](N)CCCCNC(=O)Cc3ccccc3)cc2)cc1.O=C(O)C(F)(F)F [Example 187, tris[4-[N-ε-(2-phenylacetyl)-D-lysyl]aminophenyl]methane trifluoroacetate] | 25 µM | 60.2%
8 | Cl.NCCCC[C@@H](NC(=O)Cc1ccccn1)C(=O)Nc1ccc(C(c2ccc(NC(=O)[C@@H](CCCCN)NC(=O)Cc3ccccn3)cc2)c2ccc(NC(=O)[C@@H](CCCCN)NC(=O)Cc3ccccn3)cc2)cc1 [Example 172, tris[4-[N-α-[2-(pyridin-2-yl)acetyl]-D-lysyl]aminophenyl]methane hydrochloride] | 100 µM | 24.4%
9 | Cl.NCCCC[C@@H](NC(=O)Cc1cccs1)C(=O)Nc1ccc(C(c2ccc(NC(=O)[C@@H](CCCCN)NC(=O)Cc3cccs3)cc2)c2ccc(NC(=O)[C@@H](CCCCN)NC(=O)Cc3cccs3)cc2)cc1 [Example 164, tris[4-[N-α-[2-(thiophen-2-yl)acetyl]-D-lysyl]aminophenyl]methane hydrochloride] | 25 µM | 24.9%
10 | Cc1[nH]c2ccccc2c1CC(=O)N[C@H](CCCCN)C(=O)Nc1ccc(C(c2ccc(NC(=O)[C@@H](CCCCN)NC(=O)Cc3c(C)[nH]c4ccccc34)cc2)c2ccc(NC(=O)[C@@H](CCCCN)NC(=O)Cc3c(C)[nH]c4ccccc34)cc2)cc1 [Example 21, tris[4-[N-α-[2-(2-methyl-1H-indol-3-yl)acetyl]-D-lysyl]aminophenyl]methane] | 25 µM | 60.1%
11 | NCCCC[C@H](NC(=O)Cc1ccccc1)C(=O)Nc1ccc(C(c2ccc(NC(=O)[C@H](CCCCN)NC(=O)Cc3ccccc3)cc2)c2ccc(NC(=O)[C@H](CCCCN)NC(=O)Cc3ccccc3)cc2)cc1.O=C(O)C(F)(F)F [Example 199, tris[4-[N-α-(2-phenylacetyl)-L-lysyl]aminophenyl]methane trifluoroacetate] | 12.5 µM | 47.0%
12 | COc1ccc2[nH]c(C)c(CC(=O)N[C@@H](CCCN)C(=O)Nc3ccc(C(c4ccc(NC(=O)[C@H](CCCN)NC(=O)Cc5c(C)[nH]c6ccc(OC)cc56)cc4)c4ccc(NC(=O)[C@H](CCCN)NC(=O)Cc5c(C)[nH]c6ccc(OC)cc56)cc4)cc3)c2c1.O=C(O)C(F)(F)F [Example 135, tris[4-[N-α-[2-(5-methoxy-2-methyl-1H-indol-3-yl)acetyl]-L-ornithyl]aminophenyl]methane trifluoroacetate] | 50 µM | 15.8%
13 | Cl.NCCCC[C@H](NC(=O)Cc1ccsc1)C(=O)Nc1ccc(C(c2ccc(NC(=O)[C@H](CCCCN)NC(=O)Cc3ccsc3)cc2)c2ccc(NC(=O)[C@H](CCCCN)NC(=O)Cc3ccsc3)cc2)cc1 [Example 13, tris[4-[N-α-[2-(thiophen-3-yl)acetyl]-L-lysyl]aminophenyl]methane hydrochloride] | 25 µM | 25.7%
14 | Cl.NCCCC[C@@H](NC(=O)c1cnccn1)C(=O)Nc1ccc(C(c2ccc(NC(=O)[C@@H](CCCCN)NC(=O)c3cnccn3)cc2)c2ccc(NC(=O)[C@@H](CCCCN)NC(=O)c3cnccn3)cc2)cc1 [Example 157, tris[4-[N-α-(pyrazin-2-yl)carbonyl-D-lysyl]aminophenyl]methane hydrochloride] | 50 µM | 36.1%
15 | COc1ccc2[nH]c(C)c(CC(=O)N[C@@H](CCCCN)C(=O)Nc3ccc(C(c4ccc(NC(=O)[C@H](CCCCN)NC(=O)Cc5c(C)[nH]c6ccc(OC)cc56)cc4)c4ccc(NC(=O)[C@H](CCCCN)NC(=O)Cc5c(C)[nH]c6ccc(OC)cc56)cc4)cc3)c2c1.Cl [Example 6, tris[4-[N-α-[2-(5-methoxy-2-methyl-1H-indol-3-yl)acetyl]-L-lysyl]aminophenyl]methane hydrochloride] | 25 µM | 17.4%
16 | Cl.NCCCC[C@@H](NC(=O)Cc1ccsc1)C(=O)Nc1ccc(C(c2ccc(NC(=O)[C@@H](CCCCN)NC(=O)Cc3ccsc3)cc2)c2ccc(NC(=O)[C@@H](CCCCN)NC(=O)Cc3ccsc3)cc2)cc1 [Example 23, tris[4-[N-α-[2-(thiophen-3-yl)acetyl]-D-lysyl]aminophenyl]methane hydrochloride] | 25 µM | 48.0%
17 | NCCCC[C@H](NC(=O)c1cccc2cc(O)ccc12)C(=O)Nc1ccc(C(c2ccc(NC(=O)[C@H](CCCCN)NC(=O)c3cccc4cc(O)ccc34)cc2)c2ccc(NC(=O)[C@H](CCCCN)NC(=O)c3cccc4cc(O)ccc34)cc2)cc1.O=C(O)C(F)(F)F [Example 200, tris[4-[N-α-(6-hydroxynaphthalen-1-yl)carbonyl-L-lysyl]aminophenyl]methane trifluoroacetate] | 25 µM | 144%
18 | Cl.N=C(N)NCCC[C@H](NC(=O)Cc1ccsc1)C(=O)Nc1ccc(C(c2ccc(NC(=O)[C@H](CCCNC(=N)N)NC(=O)Cc3ccsc3)cc2)c2ccc(NC(=O)[C@H](CCCNC(=N)N)NC(=O)Cc3ccsc3)cc2)cc1 (stereo partly drawn) [Example 38, tris[4-[N-α-[2-(thiophen-3-yl)acetyl]-L-arginyl]aminophenyl]methane hydrochloride] | 25 µM | 124%
19 | Cl.N=C(N)NCCC[C@@H](NC(=O)Cc1ccsc1)C(=O)Nc1ccc(C(c2ccc(NC(=O)[C@@H](CCCNC(=N)N)NC(=O)Cc3ccsc3)cc2)c2ccc(NC(=O)[C@@H](CCCNC(=N)N)NC(=O)Cc3ccsc3)cc2)cc1 (stereo partly drawn) [Example 40, tris[4-[N-α-[2-(thiophen-3-yl)acetyl]-D-arginyl]aminophenyl]methane hydrochloride] | 12.5 µM | 59.0%
20 | Cc1[nH]c2ccccc2c1CC(=O)N[C@@H](CCCCN)C(=O)Nc1ccc(C(c2ccc(NC(=O)[C@H](CCCCN)NC(=O)Cc3c(C)[nH]c4ccccc34)cc2)c2ccc(NC(=O)[C@H](CCCCN)NC(=O)Cc3c(C)[nH]c4ccccc34)cc2)cc1.Cl [Example 7, tris[4-[N-α-[2-(2-methyl-1H-indol-3-yl)acetyl]-L-lysyl]aminophenyl]methane hydrochloride] | 21 µM | 24.7%
